Assay results taken from patent US11603373B2, “TDO2 and IDO1 inhibitors” (Genentech, Inc., priority 2017, dated 2023).

How the values were obtained:
[1] = target: T1, IDO1 (A172+IFNg cells, high IDO expressing cells) (Homo sapiens, UniProt P14902); assay: NFK GreenScreen cell assay, inhibition of IDO in A172+IFNg cells; type: cell-based; conditions: read-out: IDO cell Fluor EC50
T1 construct: A172+IFNg cells (high IDO expressing cells); endogenous in cells; host or cells: A172 cells induced with 100 ng/ml IFNγ
T1 sequence (P14902 whole entry): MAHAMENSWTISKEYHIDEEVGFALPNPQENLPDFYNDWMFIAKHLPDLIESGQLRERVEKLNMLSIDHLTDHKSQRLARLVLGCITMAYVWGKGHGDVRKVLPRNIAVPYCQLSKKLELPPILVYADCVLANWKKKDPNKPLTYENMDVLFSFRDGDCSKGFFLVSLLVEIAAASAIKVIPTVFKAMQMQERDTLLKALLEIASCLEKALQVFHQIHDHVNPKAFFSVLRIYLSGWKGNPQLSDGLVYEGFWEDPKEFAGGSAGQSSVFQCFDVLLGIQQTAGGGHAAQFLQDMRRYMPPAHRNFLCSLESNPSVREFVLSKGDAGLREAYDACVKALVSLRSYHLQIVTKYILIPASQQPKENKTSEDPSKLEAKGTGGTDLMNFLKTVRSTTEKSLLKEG
Text: (§1) Cells are counted on a Vi-Cell (Beckman Coulter). […] The final DMSO concentration is 0.5%.

[2] = target: T2, TDO2 (SW48 cells, high TDO expressing cells) (Homo sapiens, UniProt P48775); assay: NFK GreenScreen cell assay, inhibition of TDO in SW48 cells; type: cell-based; conditions: read-out: TDO2 Cell Fluor EC50
T2 construct: SW48 cells (high TDO expressing cells); endogenous in cells; host or cells: SW48 cells
T2 sequence (P48775 whole entry): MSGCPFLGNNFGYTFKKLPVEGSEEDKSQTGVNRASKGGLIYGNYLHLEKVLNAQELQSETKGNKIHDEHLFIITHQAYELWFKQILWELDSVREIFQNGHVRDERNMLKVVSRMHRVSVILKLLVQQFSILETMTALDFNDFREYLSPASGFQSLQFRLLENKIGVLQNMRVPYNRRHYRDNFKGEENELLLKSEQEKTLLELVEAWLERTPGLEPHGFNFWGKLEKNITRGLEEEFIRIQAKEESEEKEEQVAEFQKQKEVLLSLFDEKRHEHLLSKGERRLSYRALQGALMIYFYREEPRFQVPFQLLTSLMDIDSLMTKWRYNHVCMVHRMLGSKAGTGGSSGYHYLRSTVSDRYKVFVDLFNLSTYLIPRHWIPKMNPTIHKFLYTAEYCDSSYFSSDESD
Text: as §1

Structure (SMILES) | EC50 [1] [µM] | EC50 [2] [µM]
CC(C)(C)OC(=O)N1CCC2(CC1)C[C@H](C1c3ccccc3-c3cncn31)[C@@H]2O (single isomer, unassigned) [Example 1a] | 4.3 | 6.3
CC(C)(C)OC(=O)N1CCC2(CC1)C[C@@H]([C@H]1c3ccccc3-c3cncn31)[C@H]2O (single isomer, unassigned) [Example 1b] | 0.0279 | 0.3
CC(C)(C)OC(=O)N1CCC2(CC[C@@H]([C@@H]3c4ccccc4-c4cncn43)[C@@H]2O)CC1 (single isomer, unassigned) [Example 2a] | 6.6 | 15
CC(C)(C)OC(=O)N1CCC2(CC[C@H]([C@H]3c4ccccc4-c4cncn43)[C@H]2O)CC1 (single isomer, unassigned) [Example 2b] | 0.41 | 0.24
CC(C)(C)OC(=O)N1CCC2(CC[C@@H]([C@H]3c4ccccc4-c4cncn43)[C@H]2O)CC1 (single isomer, unassigned) [Example 2c] | 0.0515 | 0.107
CC(C)(C)OC(=O)N1CCC2(CC[C@H]([C@@H]3c4ccccc4-c4cncn43)[C@@H]2O)CC1 (single isomer, unassigned) [Example 2d] | 1.6 | 3.7
CC(C)(C)OC(=O)N1CC2(CC[C@H]([C@@H]3c4ccccc4-c4cncn43)[C@@H]2O)C1 (single isomer, unassigned) [Example 3b] | 1.1 | 0.072
CC(C)(C)OC(=O)N1CC2(CC[C@@H]([C@@H]3c4ccccc4-c4cncn43)[C@@H]2O)C1 (single isomer, unassigned) [Example 3c] | 13 | 14
CC(C)(C)OC(=O)N1CC2(CC[C@H]([C@H]3c4ccccc4-c4cncn43)[C@H]2O)C1 (single isomer, unassigned) [Example 3d] | 4 | 0.13
CC(C)(C)OC(=O)N1CC2(CC[C@@H]([C@H]3c4ccccc4-c4cncn43)[C@@H]2O)C1 (single isomer, unassigned) [Example 3e] | 7.1 | 14
CC(C)(C)OC(=O)N1CC2(CC[C@H]([C@@H]3c4ccccc4-c4cncn43)[C@H]2O)C1 (single isomer, unassigned) [Example 3f] | 0.17 | 0.13
CC(C)(C)OC(=O)N1CC2(CC[C@@H]([C@@H]3c4ccccc4-c4cncn43)[C@H]2O)C1 (single isomer, unassigned) [Example 3g] | 8.2 | 14
CC(C)(C)OC(=O)N1CC2(CC[C@H]([C@H]3c4ccccc4-c4cncn43)[C@@H]2O)C1 (single isomer, unassigned) [Example 3h] | 0.2 | 1.2
NS(=O)(=O)N1CCC2(CC[C@H]([C@H]3c4ccccc4-c4cncn43)[C@H]2O)CC1 (single isomer, unassigned) [Example 4b] | 16 | 0.51
NS(=O)(=O)N1CCC2(CC[C@@H]([C@H]3c4ccccc4-c4cncn43)[C@H]2O)CC1 (single isomer, unassigned) [Example 4c] | 6.2 | 4.6
NS(=O)(=O)N1CCC2(CC[C@H]([C@@H]3c4ccccc4-c4cncn43)[C@@H]2O)CC1 (single isomer, unassigned) [Example 4d] | 0.11 | 0.073
O=C(C1CCc2nncn2C1)N1CCC2(CC1)CC(C1c3ccccc3-c3cncn31)C2O (stereo not drawn) [compound 67, [3-hydroxy-2-(5H-imidazo[1,5-b]isoindol-5-yl)-7-azaspiro[3.5]nonan-7-yl]-(5,6,7,8-tetrahydro-[1,2,4]triazolo[4,3-a]pyridin-6-yl)methanone] |  | 23

Next, values leading:

EC50 [1] [µM] | EC50 [2] [µM] | Structure (SMILES)
0.29 | 0.16 | O=S1(=O)CCC2(CC[C@@H]([C@H]3c4ccccc4-c4cncn43)[C@H]2O)CC1 (relative stereo) [Example 13a, (1R,2S)-1-hydroxy-2-((S)-5H-imidazo[5,1-a]isoindol-5-yl)-8-thiaspiro[4.5]decane 8,8-dioxide]
2.1 | 0.41 | CC(C)(C)OC(=O)N1CC2CCC(C1)C21C[C@H]([C@@H]2c3ccccc3-c3cncn32)[C@@H]1O (relative stereo) [Example 22a, tert-butyl (2′S,3′R)-2′-hydroxy-3′-((R)-5H-imidazo[5,1-a]isoindol-5-yl)-3-azaspiro[bicyclo[3.2.1]octane-8,1′-cyclobutane]-3-carboxylate]
5.9 | 0.4 | CS(=O)(=O)N1CCC2(CC1)C[C@H]([C@@H]1c3ccccc3-c3cncn31)[C@@H]2O (single isomer, unassigned) [Example 6a]
9.3 | 0.54 | CS(=O)(=O)N1CCC2(CC1)C[C@@H]([C@H]1c3ccccc3-c3cncn31)[C@@H]2O (single isomer, unassigned) [Example 6d]
3.2 | 6.8 | CS(=O)(=O)N1CCC2(CC1)C[C@@H]([C@@H]1c3ccccc3-c3cncn31)[C@H]2O (single isomer, unassigned) [Example 6e]
0.024 | 0.12 | CS(=O)(=O)N1CCC2(CC1)C[C@H]([C@H]1c3ccccc3-c3cncn31)[C@@H]2O (single isomer, unassigned) [Example 6f]
4.68 | 1.23 | CS(=O)(=O)N1CCC2(CC1)C[C@H]([C@H]1c3ccccc3-c3cncn31)[C@H]2O (single isomer, unassigned) [Example 6g]
6.5 | 8.6 | CS(=O)(=O)N1CCC2(CC1)C[C@@H]([C@@H]1c3ccccc3-c3cncn31)[C@@H]2O (single isomer, unassigned) [Example 6h]
3.9 | 0.37 | CS(=O)(=O)N1CCC2(CC[C@@H]([C@@H]3c4ccccc4-c4cncn43)[C@@H]2O)CC1 (single isomer, unassigned) [Example 7a]
0.115 | 0.133 | CS(=O)(=O)N1CCC2(CC[C@@H]([C@H]3c4ccccc4-c4cncn43)[C@H]2O)CC1 (single isomer, unassigned) [Example 7c]
17 | 15 | O=S(=O)(CF)N1CCC2(CC1)C[C@H]([C@@H]1c3ccccc3-c3cncn31)[C@@H]2O (single isomer, unassigned) [Example 8a]
 | 24 | CC(=O)N1CCC2(CC[C@@H]([C@H]3c4ccccc4-c4cncn43)[C@H]2O)CC1 (single isomer, unassigned) [Example 10a]
 | 3 | NS(=O)(=O)N1CCC2(CC1)C[C@@H]([C@H]1c3ccccc3-c3cncn31)[C@@H]2O (single isomer, unassigned) [Example 11d]
 | 11 | NS(=O)(=O)N1CCC2(CC1)C[C@@H]([C@@H]1c3ccccc3-c3cncn31)[C@@H]2O (single isomer, unassigned) [Example 11h]
 | 20 | CC(C)(C)OC(=O)N[C@H]1CC[C@]2(CC1)C[C@@H]([C@H]1c3ccccc3-c3cncn31)[C@@H]2O (single isomer, unassigned) [Example 24o]
8.8 |  | CC(C)(C)OC(=O)N1CC2CCC(C1)C21C[C@H]([C@H]2c3ccccc3-c3cncn32)[C@@H]1O (stereo partly drawn) [Example 22c, tert-butyl (2′S,3′R)-2′-hydroxy-3′-((S)-5H-imidazo[5,1-a]isoindol-5-yl)-3-azaspiro[bicyclo[3.2.1]octane-8,1′-cyclobutane]-3-carboxylate]
